Measured values as given in PubChem BioAssay AID1259407 (Chemical Carcinogenesis Research Information System (CCRIS), 2018).
Calls of active or inactive are those of the source. No rule for the calls is given here.

Tested on: CCRIS mutagenicity, Ames/micronucleus/aberration tests
Experiment: CCRIS mutagenicity studies

Measured: mutagenic call

COc1ccc2[nH]cc(CCNC(C)=O)c2c1
inactive: Test System: AMES SALMONELLA TYPHIMURIUM, Strain/Indicator: TA97, Metabolic Activation: NONE, Method: STANDARD PLATE inactive; negative | Test System: AMES SALMONELLA TYPHIMURIUM, Strain/Indicator: TA97, Metabolic Activation: RAT, LIVER, S-9, AROCLOR 1254, Method: STANDARD PLATE inactive; negative | Test System: AMES SALMONELLA TYPHIMURIUM, Strain/Indicator: TA97A, Metabolic Activation: NONE, Method: STANDARD PLATE inactive; negative | Test System: AMES SALMONELLA TYPHIMURIUM, Strain/Indicator: TA97A, Metabolic Activation: RAT LIVER S-9, PHENOBARBITOL/BETA-NAPHTHOFLAVONE, Method: STANDARD PLATE inactive; negative | Test System: AMES SALMONELLA TYPHIMURIUM, Strain/Indicator: TA98, Metabolic Activation: NONE, Method: STANDARD PLATE inactive; negative | Test System: AMES SALMONELLA TYPHIMURIUM, Strain/Indicator: TA98, Metabolic Activation: RAT LIVER S-9, PHENOBARBITOL/BETA-NAPHTHOFLAVONE, Method: STANDARD PLATE inactive; negative | Test System: AMES SALMONELLA TYPHIMURIUM, Strain/Indicator: TA98, Metabolic Activation: RAT, LIVER, S-9, AROCLOR 1254, Method: STANDARD PLATE inactive; negative | Test System: AMES SALMONELLA TYPHIMURIUM, Strain/Indicator: TA100, Metabolic Activation: NONE, Method: PREINCUBATION inactive; negative | Test System: AMES SALMONELLA TYPHIMURIUM, Strain/Indicator: TA100, Metabolic Activation: NONE, Method: STANDARD PLATE inactive; negative | Test System: AMES SALMONELLA TYPHIMURIUM, Strain/Indicator: TA100, Metabolic Activation: RAT LIVER S-9, PHENOBARBITOL/BETA-NAPHTHOFLAVONE, Method: PREINCUBATION inactive; negative | Test System: AMES SALMONELLA TYPHIMURIUM, Strain/Indicator: TA100, Metabolic Activation: RAT LIVER S-9, PHENOBARBITOL/BETA-NAPHTHOFLAVONE, Method: STANDARD PLATE inactive; negative | Test System: AMES SALMONELLA TYPHIMURIUM, Strain/Indicator: TA100, Metabolic Activation: RAT, LIVER, S-9, AROCLOR 1254, Method: STANDARD PLATE inactive; negative | Test System: AMES SALMONELLA TYPHIMURIUM, Strain/Indicator: TA1535, Metabolic Activation: NONE, Method: STANDARD PLATE inactive; negative | Test System: AMES SALMONELLA TYPHIMURIUM, Strain/Indicator: TA1535, Metabolic Activation: RAT LIVER S-9, PHENOBARBITOL/BETA-NAPHTHOFLAVONE, Method: STANDARD PLATE inactive; negative | Test System: E.COLI, Strain/Indicator: WP2/UVRA, Metabolic Activation: NONE, Method: STANDARD PLATE inactive; negative | Test System: E.COLI, Strain/Indicator: WP2/UVRA, Metabolic Activation: RAT LIVER S-9, PHENOBARBITOL/BETA-NAPHTHOFLAVONE, Method: STANDARD PLATE inactive; negative
